From patent publication US20250011792A1, “IRAP INHIBITORS FOR USE IN THE TREATMENT OF INFLAMMATORY DISEASES” (INSTITUT NATIONAL DE LA SANTÉ ET DE LA RECHERCHE MÉDICALE, priority 2021, published 2025)

Columns and labels:
[1] = tested on: mast cells; assay: Cytokine secretion by mast cells treated with IRAP inhibitors for 24 h before ionomycin/PMA activation; assay type: cell-based, mouse; conditions: mast cells treated for 24 h prior to ionomycin/PMA activation; data not shown
Protocol: PCMCs were stimulated with 1 uM ionomycin/10 nM PMA or 100 ng/ml LPS at 37° C. for 6 h for cytokine secretion or with ionomycin/PMA or 10 ug/ml 48/80 for 30 min for histamine measurement.
(§1) Supernatants were collected and histamine was quantified using the Histamine Dynamic HTRF kit (Cisbio). TNF-α, IL-6, or IL-10 were quantified using specific cytokine ELISA kits. Kits were used according to the manufacturer's instructions.
Considering the aminopeptidase function of TRAP, we wondered if its catalytic activity was required for efficient cytokine secretion. To test this, we treated mast cells with the IRAP inhibitors HFI-419, 4u 55 and 22b (a gift from E. Stratikos) for 24 h prior to ionomycin/PMA activation.

[2] = tested on: IRAP wt mice; assay: Mouse ear challenge with arachidonic acid, cytokines quantified in ear tissue homogenates; assay type: in vivo; conditions: 1 μmol/kg intravenously at 24 h and 15 min prior to ear challenge; ear tissue homogenates normalized to total protein; FIG. 3
Protocol: IRAP wt mice were injected i.v. with 6 μg HI-419 or vehicle 24 h and 15 min prior to ear challenge. Cytokine concentrations were quantified in ear tissue homogenates and normalized to total protein concentration.
Twenty microliters arachidonic acid (AA) (30 mg/ml in acetone) were applied to the inner and outer surface of one mouse ear, whereas the other ear was left untreated.
One hour after AA application, mice were sacrificed and ears were collected. The ear biopsies were dissociated using the pre-set “Protein” protocol of gentleMACS™ Octo Dissociator (Milteniy Biotec) in 800 μl ice-cold homogenization buffer [(PBS containing 0.4M NaCl, 0.05% Tween-20, 10 mM EDTA and protease inhibitor cocktail complete (Roche)]. The homogenates were cleared by 10 min centrifugation at 5000×g, and the total protein concentration determined in a BCA assay. Histamine or cytokines in the supernatant were quantified as described below.
as §1
(§2) Vehicle or inhibitor at a dose of 1 μmol/kg was administered intravenously at 24 h and 15 min prior to the ear challenge. […] We therefore hypothesized that in addition to blocking its catalytic activity, HI-419 may also affect the stability of IRAP.

[3] = biological target: T1, IRAP (Mus musculus, UniProt Q8C129); assay: Intracellular flow cytometry staining of IRAP expression after HFI-419 treatment; assay type: cell-based; conditions: starting from 24 h of treatment, data not shown
T1 construct: endogenous in cells; host or cells: primary mouse mast cells (BMMC / peritoneal cell-derived mast cells) from wt mice
T1 sequence (Q8C129 1-1025): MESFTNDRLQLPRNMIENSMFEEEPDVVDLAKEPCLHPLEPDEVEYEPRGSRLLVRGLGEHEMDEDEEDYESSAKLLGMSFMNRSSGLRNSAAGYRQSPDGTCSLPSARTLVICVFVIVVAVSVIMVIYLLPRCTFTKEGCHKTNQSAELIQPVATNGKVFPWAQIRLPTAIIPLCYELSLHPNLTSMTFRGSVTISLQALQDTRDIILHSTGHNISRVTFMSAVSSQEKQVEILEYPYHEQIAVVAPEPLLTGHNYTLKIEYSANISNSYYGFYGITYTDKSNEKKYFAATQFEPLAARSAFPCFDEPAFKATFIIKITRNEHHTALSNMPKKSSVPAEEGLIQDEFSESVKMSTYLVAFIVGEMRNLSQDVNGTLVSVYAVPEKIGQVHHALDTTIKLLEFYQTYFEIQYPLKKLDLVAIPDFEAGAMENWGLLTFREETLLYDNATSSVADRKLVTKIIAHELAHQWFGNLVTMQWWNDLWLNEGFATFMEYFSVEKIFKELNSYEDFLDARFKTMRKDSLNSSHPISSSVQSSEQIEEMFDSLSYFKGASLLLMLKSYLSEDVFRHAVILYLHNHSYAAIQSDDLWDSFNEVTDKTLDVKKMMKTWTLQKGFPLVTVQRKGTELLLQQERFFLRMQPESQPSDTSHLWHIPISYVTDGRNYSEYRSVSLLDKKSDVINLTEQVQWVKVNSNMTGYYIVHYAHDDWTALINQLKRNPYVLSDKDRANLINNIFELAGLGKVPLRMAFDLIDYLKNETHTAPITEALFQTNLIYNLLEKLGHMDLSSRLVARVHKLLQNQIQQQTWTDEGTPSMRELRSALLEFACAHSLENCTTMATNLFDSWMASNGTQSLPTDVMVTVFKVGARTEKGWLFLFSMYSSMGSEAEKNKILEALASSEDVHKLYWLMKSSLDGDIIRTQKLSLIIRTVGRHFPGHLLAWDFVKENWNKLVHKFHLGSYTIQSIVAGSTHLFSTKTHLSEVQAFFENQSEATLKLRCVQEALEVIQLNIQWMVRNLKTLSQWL
Protocol: (§3) For TNF-α surface staining, PCMCs were stimulated with 1 μM ionomycin/10 nM PMA or 100 ng/ml LPS at 37° C. for 4 h in the presence of TAPI-1, washed with ice-cold PBS, and incubated at 4° C. with Fcblock (Miltenyi) followed by fluorochrome-conjugated CD117, FcεRI and TNF-α antibodies diluted in PBS-1% BSA. Intracellular staining of cytokines, IRAP and VAMP3 was performed using the BD intracellular staining kit and suitable species-specific fluorescent secondary antibodies (Life technologies).
as §2

[4] = tested on: VAMP3; assay: Intracellular flow cytometry staining of VAMP3 expression after HFI-419 treatment; assay type: cell-based, mouse; conditions: starting from 24 h of treatment, data not shown
Protocol: as §3, §2

[5] = tested on: wt cells (mast cells); assay: TNF-α secretion in the presence of endocytosis inhibitors; assay type: cell-based, mouse; conditions: wt versus IRAPko cells; data not shown
[6] = tested on: IRAP; assay: Subcellular localization of IRAP under endocytosis inhibition after LPS activation; assay type: cell-based, mouse; conditions: after three hours of LPS activation; data not shown

SMILES | inhibition of IRAP-dependent cytokine secretion in vitro [1] | IL-6 secretion in challenged ear versus vehicle-treated animals [2] | IL-10 secretion in challenged ear versus vehicle-treated animals [2] | TNF-α secretion in challenged ear versus vehicle-treated animals [2] | expression level of IRAP [3] | expression level of IRAP ([3]; listed as HI-419) | expression level of VAMP3 [4] | TNF-α secretion [5] | IRAP subcellular localization (re-internalization) [6]
CCOC(=O)C1=C(NC(C)=O)Oc2cc(O)ccc2C1c1cccnc1 (racemic) [HFI-419, (±)-Ethyl-2-acetamido-7-hydroxy-4-(pyridin-3-yl)-4H-chromene-3-carboxylate] | significant inhibition | significantly less | unaffected | significantly less | decreased expression levels | reduced | decreased expression levels | – | –
CS(=O)(=O)N1CCN(Cc2cc3nc(-c4cccc5[nH]ncc45)nc(N4CCOCC4)c3s2)CC1 [GDC-0941] | – | – | – | – | – | – | – | reduce TNF-α secretion specifically in wt cells | –
O=C(N/N=C/c1ccc(O)c(O)c1)c1cc2ccccc2cc1O [dynasore] | – | – | – | – | – | – | – | reduce TNF-α secretion specifically in wt cells | strong plasma membrane staining
